The target in data set [1] is T1, human S1P5 receptor (Homo sapiens, UniProt Q9H228).
T1 construct: host or cells: CHO (AequoScreen recombinant cell line, co-expressing mitochondrially targeted apo-aequorin)
As to the kind of experiment: In vitro functional activity (agonism), CHO-human-S1P5-Aequorin assay. The class given is cell-based. The following applies: for EC50: read-out: S1P5 pEC50 (converted). From the text:
In Vitro Functional Activity (Agonism) on Human S1P5 Receptors
(§1) The CHO-human-S1P5-Aeqorin assay was bought from Euroscreen, Brussels (Euroscreen, Technical dossier, Human Lysophospholid S1P5 (Edg8) receptor, DNA clone and CHO AequoScreen™ recombinant cell-line, catalog no: ES-593-A, September 2006). Human-S1P5-Aequorin cells express mitochondrial targeted apo-Aequorin. Cells have to be loaded with coelanterazine, in order to reconstitute active Aequorin. After binding of agonists to the human S1P5 receptor the intracellular calcium concentration increases and binding of calcium to the apo-Aequorin/coelenterazine complex leads to an oxidation reaction of coelenterazine, which results in the production of apo-Aequorin, coelenteramide, CO2 and light (λmax 469 nm). This luminescent response is dependent on the agonist concentration. Luminescence is measured using the MicroBeta Jet (Perkin Elmer). Agonistic effects of compounds are expressed as pEC50. Compounds were tested at a 10 points half log concentration range, and 3 independent experiments were performed in single point's measurements.

Data set [2] concerns the target T2, human S1P3 receptor (Homo sapiens, UniProt Q99500).
T2 construct: cell line established at Solvay Pharmaceuticals; host or cells: CHO K1 (CHO/Gα16/AEQ/h-S1P3)
The data set can be described thus: In vitro functional activity (agonism), CHO-human-S1P3-Aequorin assay. The class given is cell-based. The following applies: for EC50: read-out: S1P3 pEC50 (converted).
Description: In Vitro Functional Activity (Agonism) on Human S1P3 Receptors
The CHO-human-S1P3-Aeqorin assay (CHO/Gα16/AEQ/h-S1P3) was established at Solvay Pharmaceuticals. The plasmid DNA coding for the S1P3 receptor (accession number in GenBank NM_005226 was purchased from UMR cDNA resource Centre (Rolla, Mo.). The pcDNA3.1/hS1P3 construct carrying the mitochondrially targeted apo-Aeqorin and Gα16 protein was transfected in CHO K1 cell-line.
as §1, with “Human-S1P3-Aequorin” for “The CHO-human-S1P5-Aeqorin assay was bought from Euroscreen, Brussels (Euroscreen, Technical dossier, Human Lysophospholid S1P5 (Edg8) receptor, DNA clone and CHO AequoScreen™ recombinant cell-line, catalog no: ES-593-A, September 2006). Human-S1P5-Aequorin”, “S1P3” for “S1P5”

This note sets out measurements from patent US9273017B2, “(Thio)morpholine derivatives as S1P modulators” (ABBVIE BAHAMAS LIMITED, priority 2009, dated 2016).

Where a name gives a salt, the structure may show the parent alone. A value given as a limit tells only on which side of the number the result lay.

T2 sequence (Q99500 whole entry): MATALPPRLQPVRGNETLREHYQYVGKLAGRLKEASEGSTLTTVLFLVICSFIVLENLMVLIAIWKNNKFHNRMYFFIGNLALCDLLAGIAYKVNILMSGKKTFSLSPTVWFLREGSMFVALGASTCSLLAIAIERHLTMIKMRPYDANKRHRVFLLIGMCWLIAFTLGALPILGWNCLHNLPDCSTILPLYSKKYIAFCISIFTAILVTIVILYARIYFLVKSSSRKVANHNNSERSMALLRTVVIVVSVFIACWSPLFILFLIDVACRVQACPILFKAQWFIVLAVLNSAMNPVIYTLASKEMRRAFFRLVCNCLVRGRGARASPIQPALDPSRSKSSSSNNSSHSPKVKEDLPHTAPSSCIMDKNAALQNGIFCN
T1 sequence (Q9H228 whole entry): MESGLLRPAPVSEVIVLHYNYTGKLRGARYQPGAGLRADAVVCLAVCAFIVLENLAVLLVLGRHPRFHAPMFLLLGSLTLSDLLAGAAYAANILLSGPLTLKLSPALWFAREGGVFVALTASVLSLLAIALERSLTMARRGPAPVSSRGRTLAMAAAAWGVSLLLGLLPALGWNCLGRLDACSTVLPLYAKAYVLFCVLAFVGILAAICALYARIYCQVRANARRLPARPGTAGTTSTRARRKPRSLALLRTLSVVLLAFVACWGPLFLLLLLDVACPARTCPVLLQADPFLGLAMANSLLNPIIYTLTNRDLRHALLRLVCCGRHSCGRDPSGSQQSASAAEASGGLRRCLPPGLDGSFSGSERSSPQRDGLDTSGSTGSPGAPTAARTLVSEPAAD

In the case of `CCCCCCCCOc1ccc(C2CN(CCP(=O)(O)O)CCO2)cc1` (centres unmarked) [Compound 137, {2-[2-(4-Octyloxy-phenyl)-morpholin-4-yl]-ethyl}-phosphonic acid], the results for the EC50 in data set [1] and in data set [2] were 100 nM and 501 nM, respectively.

Turning to `CCCCCCCCOc1ccc(C2CN(CCC(=O)O)C(C)(C)CO2)cc1` (centres unmarked) [Compound 187, 3-[5,5-Dimethyl-2-(4-octyloxy-phenyl)-morpholin-4-yl]-propionic acid hydrochloride], the EC50 in data set [1] is 794 nM; in data set [2], 3160 nM.

For `Cc1cc(OCc2ccc(C(C)(C)C)cc2)ccc1C1CN(CCC(=O)O)CCO1` (centres unmarked) [Compound 127, 3-{2-[4-(4-tert-Butyl-benzyloxy)-2-methyl-phenyl]-morpholin-4-yl}-propionic acid], the EC50 in data set [1] is 631 nM; in data set [2], above 10000 nM.

Consider `COc1cc(C2CN(CCC(=O)O)CCO2)ccc1OCc1c(F)cccc1Cl.Cl` (centres unmarked), for which the melting point (in general, the temperature, or range, at which the solid turns liquid) fell in the range of 169 to 171 °C.

Turning to “3-{2-[4-(2,6-Dichloro-benzyloxy)-phenyl]-morpholin-4-yl}-2,2-di-fluoro-propionic acid triethylammonium salt [Compound 150]”, in data set [1], the “S1P5 pEC50” value worked out at 6.2. In data set [2], the “S1P3 pEC50” value is below 5.0.

`CCc1cccc(Cl)c1COc1ccc(C2CN(CCC(=O)O)CCO2)c(C(F)(F)F)c1.Cl` (centres unmarked) displayed a melting point of 214 to 215 °C.

`CCCCc1ccc(COc2ccc(C3CN(CCC(=O)O)CCO3)c(C)c2)cc1` (centres unmarked) [Compound 117, 3-{2-[4-(4-Butyl-benzyloxy)-2-methyl-phenyl]-morpholin-4-yl}-propionic acid]: the EC50 is 3980 nM in data set [1] and above 10000 nM in data set [2].

Consider `CCCc1cc(Cl)c(COc2ccc(C3CN(CCC(=O)O)CCO3)cc2)c(Cl)c1.Cl` (centres unmarked), for which the melting point lay in the range of 101 to 103 °C.

In the case of `Cl.O=C(O)CCN1CCOC(c2cccc(OCc3ccccc3Cl)c2)C1` (centres unmarked), the melting point is 233 to 234 °C.

As for `Cc1ccc(COc2ccc(C3CN(CCC(=O)O)CCO3)cc2)c(Cl)c1` (centres unmarked) [Compound 196, 3-{2-[4-(2-Chloro-4-methyl-benzyloxy)-phenyl]-morpholin-4-yl}-propionic acid hydrochloride], in data set [1], the EC50 was 1000 nM.

As to `CCCc1ncc(OCCCOc2ccc(C3CN(CCC(=O)O)CCO3)cc2)s1` (centres unmarked) [Compound 3, 3-(2-{4-[3-(2-Propyl-thiazol-5-yloxy)-propoxy]-phenyl}-morpholin-4-yl)-propionic acid trifluoroacetic acid salt], the EC50 in data set [1] was 10000 nM; in data set [2], 15800 nM.

For `Cc1cc(OCC2CCC3CC2C3(C)C)ccc1C1CN(CCC(=O)O)CCO1` (centres unmarked) [Compound 84, 3-{2-[4-(6,6-Dimethyl-bicyclo[3.1.1]hept-2-ylmethoxy)-2-methyl-phenyl]-morpholin-4-yl}-propionic acid], the results for the EC50 in data set [1] and in data set [2] were 3980 nM and above 10000 nM, respectively.

Consider `Cl.O=C(O)CCN1CCOC(c2ccc(OCc3ccccc3C(F)(F)F)cc2F)C1` (centres unmarked), for which the melting point was 201 to 201.5 °C.

Take `Cl.O=C(O)CCN1CCOC(c2ccc(OCc3c(Cl)cccc3C3CC3)cc2C(F)(F)F)C1` (centres unmarked): the melting point fell in the range of 203 to 204 °C.

In the case of `CCCCCCCCSc1ccc(C2CN(CCC(=O)O)CCO2)cc1` (centres unmarked) [Compound 204, 3-[2-(4-Octylsulfanyl-phenyl)-morpholin-4-yl]-propionic acid Hydrochloride], in data set [1], the EC50 is 398 nM.

In the case of `Cl.O=C(O)CCN1CCOC(c2ccc(OCc3c(F)cccc3Cl)cc2F)C1` (centres unmarked), the melting point fell in the range of 189 to 190 °C.

For the compound `Cl.O=C(O)CCN1CCOC(c2ccc(OCc3cccc(C(F)(F)F)c3)cc2C(F)(F)F)C1` (centres unmarked), the melting point was in the range of 209 to 211 °C.

`Cl.O=C(O)CCN1CCOC(c2ccc(OCc3c(F)cccc3Cl)cc2C(F)(F)F)C1` (centres unmarked): the melting point lay in the range of 171.5 to 172.5 °C.

Take `Cl.O=C(O)CCN1CCSC(c2ccc(OCc3ccccc3Cl)cc2)C1` (centres unmarked): the melting point lay in the range of 178 to 182 °C.

The compound `Cl.O=C(O)CCN1CCOC(c2ccc(OCc3c(Cl)cccc3Cl)cc2C(F)(F)F)C1` (centres unmarked) came in with a melting point of 195 to 197 °C.

Regarding `O=C(O)CCN1CCOC(c2ccc(OC3COc4ccccc43)cc2)C1` (centres unmarked) [Compound 221, 3-{2-[4-(2,3-Dihydro-benzofuran-3-yloxy)-phenyl]-morpholin-4-yl}-propionic acid], the melting point fell in the range of 141.5 to 144.5 °C.

Regarding `Cc1cc(C2CN(CCC(=O)O)CCO2)ccc1OCc1c(F)cccc1Cl` (centres unmarked) [Compound 144, 3-{2-[4-(2-Chloro-6-fluoro-benzyloxy)-3-methyl-phenyl]-morpholin-4-yl}-propionic acid hydrochloride], the EC50 in data set [1] was 631 nM; in data set [2], above 10000 nM.

`Cl.O=C(O)CCN1CCOC(c2cccc(OCc3ccccc3)c2)C1` (centres unmarked) displayed a melting point of 222 to 225 °C.

Take `CC(C)c1cccc(Cl)c1COc1ccc(C2CN(CCC(=O)O)CCO2)c(C(F)(F)F)c1.Cl` (centres unmarked): the melting point was 206 to 210 °C.

Turning to `O=C(O)CCN1CCOC(c2ccc(OCC3CCCCC3)cc2)C1` (centres unmarked) [Compound 24, 3-[2-(4-Cyclohexylmethoxy-phenyl)-morpholin-4-yl]-propionic acid trifluoroacetic acid salt], the EC50 is 631 nM in data set [1] and above 31600 nM in data set [2].

In the case of `Cl.O=C(O)CCN1CCOC(c2cccc(OCc3c(Cl)cccc3Cl)c2)C1` (centres unmarked), the melting point was in the range of 229 to 230 °C.

For the compound `O=C(O)CCN1CCOC(c2ccc(C(=O)Nc3c(Cl)cccc3Cl)cc2)C1` (centres unmarked) [Compound 53, 3-{2-[4-(2,6-Dichloro-phenylcarbamoyl)-phenyl]-morpholin-4-yl}-propionic acid hydrochloride], the EC50 in data set [1] was 2000 nM; in data set [2], above 10000 nM.

The compound `Cl.O=C(O)CCN1CCOC(c2ccc(OCc3c(Cl)cccc3C(F)(F)F)cc2C(F)(F)F)C1` (centres unmarked) yielded a melting point of 200 to 201 °C.

The compound `CC(C)c1cc(Cl)c(COc2ccc(C3CN(CCC(=O)O)CCO3)cc2)c(Cl)c1.Cl` (centres unmarked) had a melting point of 108 to 110 °C.

Regarding `O=C(O)CCN1CCOC(c2ccc(OCCCc3ccccc3)cc2)C1` (centres unmarked) [Compound 16, 3-{2-[4-(3-Phenyl-propoxy)-phenyl]-morpholin-4-yl}-propionic acid trifluoroacetic acid salt], the EC50 in data set [1] was 1000 nM; in data set [2], 3980 nM.

As to `Cc1cc(OCc2ccc3ccccc3c2)ccc1C1CN(CCC(=O)O)CCO1` (centres unmarked) [Compound 76, 3-{2-[2-Methyl-4-(naphthalen-2-ylmethoxy)-phenyl]-morpholin-4-yl}-propionic acid], the EC50 was 2510 nM in data set [1] and above 10000 nM in data set [2].

Take `Cl.O=C(O)CCN1CCOC(c2ccc(OCc3ccccc3C(F)(F)F)c(Cl)c2)C1` (centres unmarked): the melting point is 199 to 201 °C.

On to `O=C(O)CCN1CCOC(c2ccc(OC3CCc4ccccc43)cc2)C1` (centres unmarked) [Compound 219, 3-{2-[4-(Indan-1-yloxy)-phenyl]-morpholin-4-yl}propionic acid], for which the melting point is 124 to 129.5 °C.

Turning to `CC#Cc1cc(Cl)c(COc2ccc(C3CN(CCC(=O)O)CCO3)cc2)c(Cl)c1.Cl` (centres unmarked), the melting point is 220 to 224 °C.

On to `O=C(O)CCN1CCOC(c2ccc(OCc3c(Cl)cccc3Cl)cc2)C1` (single isomer, unassigned; (+)) [Compound 34a, (+)-3-{2-[4-(2,6-Dichloro-benzyloxy)-phenyl]-morpholin-4-yl}-propionic acid hydrochloride], for which the EC50 was 631 nM in data set [1] and above 31600 nM in data set [2].

Take `O=C(O)CCN1CCOC(c2ccc(OCCCc3cccc(F)c3F)cc2)C1` (centres unmarked) [Compound 174, 3-(2-{4-[3-(2,3-Difluoro-phenyl)-propoxy]-phenyl}-morpholin-4-yl)-propionic acid hydrochloride]: the EC50 in data set [1] is 1580 nM; in data set [2] it was 5010 nM.

Regarding `Cl.O=C(O)CCN1CCOC(c2ccc(OCc3c(Cl)cccc3OC(F)(F)F)cc2C(F)(F)F)C1` (centres unmarked), the melting point was 179 to 182 °C.

`CCc1cc(Cl)c(COc2ccc(C3CN(CCC(=O)O)CCO3)cc2)c(Cl)c1` (centres unmarked) [Compound 164, 3-{2-[4-(2,6-Dichloro-4-ethyl-benzyloxy)-phenyl]-morpholin-4-yl}-propionic acid hydrochloride]: the EC50 in data set [1] is 316 nM; in data set [2] it was 2000 nM.

For `Cc1cc(OCc2cccc(OCc3ccccc3)c2)ccc1C1CN(CCC(=O)O)CCO1` (centres unmarked) [Compound 100, 3-{2-[4-(3-Benzyloxy-benzyloxy)-2-methyl-phenyl]-morpholin-4-yl}-propionic acid], the EC50 in data set [1] is 3980 nM; in data set [2], above 10000 nM.

`COc1cc(C2CN(CCC(=O)O)CCO2)ccc1OCc1c(Cl)cccc1Cl.Cl` (centres unmarked): the melting point was in the range of 214 to 216 °C.
